In patent publication US20170107579A1, “E1 ENZYME MUTANTS AND USES THEREOF” (Millennium Pharmaceuticals, Inc., priority 2011, published 2017):

How the values were obtained:
[1] = test system: HCT-116 WT, HCT-116.1 A171T and HCT-116.4 C324Y cells; test: Drug efflux inhibitor co-incubation, ATPlite viability assay; assay type: cell-based; details: co-treatment with MLN4924, 96 hours
Experimental: Treatment of cells with efflux inhibitors. FIG. 8A. […] Co-incubation studies were performed with various inhibitors of drug efflux at their highest non toxic concentration.
Diypridamole (Sigma), MK571 (Tocris), GF918, K0143 (Tocris) and LY5979 were obtained from commercial sources indicated.

[2] = test system: MLN4924 resistant HCT-116 cell clones; test: Cell viability assay, 96 hours ATPlite, resistant clones; assay type: cell-based; details: HCT-116 resistant clones, 96 hours ATPlite
Experimental: HCT-116 cells and resistant clones were treated with DMSO or various concentrations of FIG. 7A. bortezomib, FIG. 7B. doxorubicin or FIG. 7C. SN-38 for 96 hours and cell viability was assessed with ATPlite assay.
Cell line cultures were maintained using appropriate cell culture media as recommended by ATCC and as previously reported (Soucy et al., 2009, Milhollen et al., 2010). […] Cell viability assays completed using 96 hours ATPlite assay (PerkinElmer) as previously reported (Soucy et al., 2009).

wild type UBA3 (NAE) = target: T1, wild type UBA3 (NAE) (Homo sapiens, UniProt Q8TBC4); test: NAE HTRF assay, IC50 at KM for ATP (20 μM); assay type: biochemical; details: read-out: NAE WT IC50
T1 construct: His; made in house; host or cells: E. coli Rosetta (DE3), co-expression
T1 sequence (Q8TBC4 whole entry): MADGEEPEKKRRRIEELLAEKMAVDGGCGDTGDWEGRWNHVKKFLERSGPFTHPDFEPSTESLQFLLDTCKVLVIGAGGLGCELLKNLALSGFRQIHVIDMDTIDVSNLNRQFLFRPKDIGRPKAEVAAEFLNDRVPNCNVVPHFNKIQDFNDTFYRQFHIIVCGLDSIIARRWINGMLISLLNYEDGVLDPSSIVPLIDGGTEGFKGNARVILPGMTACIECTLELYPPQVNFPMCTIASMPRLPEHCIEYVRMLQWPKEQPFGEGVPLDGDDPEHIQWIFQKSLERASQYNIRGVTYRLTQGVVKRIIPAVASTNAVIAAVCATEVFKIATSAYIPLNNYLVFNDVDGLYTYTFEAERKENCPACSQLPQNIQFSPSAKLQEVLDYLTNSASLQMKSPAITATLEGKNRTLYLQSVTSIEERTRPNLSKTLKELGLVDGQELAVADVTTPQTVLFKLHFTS
T1 sequence (Q13564 whole entry partner): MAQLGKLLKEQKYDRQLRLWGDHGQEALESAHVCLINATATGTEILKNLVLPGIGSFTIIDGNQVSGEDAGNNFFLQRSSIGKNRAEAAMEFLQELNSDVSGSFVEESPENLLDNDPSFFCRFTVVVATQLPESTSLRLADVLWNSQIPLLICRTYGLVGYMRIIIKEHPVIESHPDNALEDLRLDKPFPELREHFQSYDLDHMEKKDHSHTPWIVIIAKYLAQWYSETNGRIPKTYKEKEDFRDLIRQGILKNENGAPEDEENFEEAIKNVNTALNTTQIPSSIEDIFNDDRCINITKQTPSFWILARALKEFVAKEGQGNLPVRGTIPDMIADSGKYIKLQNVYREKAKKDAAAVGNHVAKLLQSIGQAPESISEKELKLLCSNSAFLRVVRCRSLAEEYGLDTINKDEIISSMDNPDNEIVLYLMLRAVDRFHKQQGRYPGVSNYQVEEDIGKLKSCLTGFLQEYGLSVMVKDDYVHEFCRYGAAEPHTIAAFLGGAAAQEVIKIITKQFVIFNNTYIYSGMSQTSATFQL
T1 sequence (Q15843 1-76 partner limits assumed): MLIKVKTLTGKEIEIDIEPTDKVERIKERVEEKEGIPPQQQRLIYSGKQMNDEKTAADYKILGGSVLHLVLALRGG
Experimental: (§1) The enzyme reversibility assay was run in the FLAG-NEDD8-GST-UBC12 HTRF transthiolation assay described previously (Soucy et al., 2009, Brownell et al., 2010). Final concentrations of each enzyme after dilution were 10 pM WT NAEβ, 12.5 pM A171T NAEβ, 30 pM N209K NAEβ, and 33 pM E204K/G201V NAEβ.
(§2) IC50 measurements were performed in the HTRF assay described in Example 6. Assays for each enzyme were performed at their KM for ATP (20 μM for wild type, 120 μM for the A171T mutant).
(§3) An NAE enzymatic reaction totals 50 μL and contains 50 mM HEPES (pH 7.5), 0.05% BSA, 5 mM MgCl2, 20 μM ATP, 250 μM GSH, 0.01 μM UBC12-GST, 0.075 NEDD8-Flag and 0.28 nM recombinant human NAE enzyme. The enzymatic reaction mixture, with and without compound inhibitor, is incubated at 24° C. for 90 minutes in a 384-well plate before termination with 25 μL of Stop/Detection buffer (0.1M HEPES pH 7.5, 0.05% Tween20, 20 mM EDTA, 410 mM KF, 0.53 nM Europium-Cryptate labeled monoclonal anti-FLAG M2 antibody (CisBio International) and 8.125 μg/mL PHYCOLINK goat anti-GST allophycocyanin (XL-APC) antibody (Prozyme)). After incubation for 3 hours at 24° C., quantification of the FRET is performed on the Analyst™ HT 96.384 (Molecular Devices).

[3] = target: T2, UBA3 variant with A171T mutation (NAE) (Homo sapiens, UniProt Q8TBC4, A171T); test: NAE HTRF assay, IC50 at KM for ATP (120 μM); assay type: biochemical
T2 construct: His; made in house; host or cells: E. coli Rosetta (DE3), co-expression
T2 sequence (Q8TBC4 whole entry A171T): as the sequence (Q8TBC4 whole entry) above, with A171T counted along it
T2 sequence (Q13564 whole entry partner): as the sequence (Q13564 whole entry partner) above
T2 sequence (Q15843 1-76 partner limits assumed): as the sequence (Q15843 1-76 partner limits assumed) above
Experimental: as §1, §2, §3

| Compound | sensitization of cells to MLN4924 by Pgp, BCRP and MRP2 inhibitors [1] | sensitivity of MLN4924 resistant clones to other chemotherapies [2] | further results |
| --- | --- | --- | --- |
| COc1cc2c(cc1OC)CN(CCc1ccc(NC(=O)c3cccc4c(=O)c5cccc(OC)c5[nH]c34)cc1)CC2 [GF120918] | did not sensitize |  |  |
| CC(C)C[C@H](NC(=O)[C@H](Cc1ccccc1)NC(=O)c1cnccn1)B(O)O [bortezomib] |  | remained sensitive |  |
| Cc1ncnc2c1ccn2[C@@H]1C[C@@H](COS(N)(=O)=O)[C@@H](O)C1 [Compound I-46] |  |  | IC50 (wild type UBA3 (NAE)): 37 nM; IC50 ([3]; UBA3 A171T mutant, HTRF assay at KM for ATP, 120 μM): 250 nM; A171T/WT ([3]; ratio of IC50 A171T mutant to IC50 wild type): 7 |
| COc1cccc2c1C(=O)c1c(O)c3c(c(O)c1C2=O)C[C@@](O)(C(=O)CO)C[C@@H]3O[C@H]1C[C@H](N)[C@H](O)[C@H](C)O1 [doxorubicin] |  | remained sensitive |  |
| COc1ccc2c3c([nH]c2c1)[C@H](CC(C)C)N1C(=O)[C@H](CCC(=O)OC(C)(C)C)NC(=O)[C@@H]1C3 [Compound K0143] | did not sensitize |  |  |
